Consider 13 compounds from paper PMC6733959, “Synthesis and Evaluations of Novel Apocynin Derivatives as Anti-Glioma Agents” (Frontiers in Pharmacology, 2019).

Series [1] can be described thus: Transport experiment in the in vitro BBB cell model. The settings on record: Sprague-Dawley, rat, apical to basolateral, mean ± SD (n = 3-4), read-out: Papp × 10^−6; for Papp at 90 min, 100 μM: C0 100 μM; for Papp at 90 min, 20 μM: C0 20 μM. The format is in vitro ADME. How it is done:
(§1) Rat brain microvascular endothelial cells (BMECs) were separated from the cerebral cortex of 18-day-old male Sprague-Dawley rats as described previously ([Biegel et al., 1995]). Briefly, the cerebral cortical tissues were dissected from meninges after the rats were sacrificed, then the tissues were homogenated in physiological buffer solution (pH 7.4). After centrifugation, the pellets were collected, and the microvascular segments were then digested with 0.1% collagenase II at 37°C for 1 h. […] The second passage was used for co-culture of BBB cellular models.
Astrocytes were separated from the cerebral cortex of newborn Sprague-Dawley rats (1–2 days) as described previously ([Jeliazkova-Mecheva and Bobilya, 2003]). The brain tissues (removal of the meninges and blood vessel) were minced and mechanical homogenized and then digested with 0.25% trypsin-EDTA at 37°C for 10 min.
The in vitro BBB cell model was constructed in the Transwell 24well plate ([…], Millipore, USA). Before the experiment, the transwell filters were coated with matrigel matrix. The isolated rat astroglias were seeded onto one side of polycarbonate inserts (5 × 10^4 cells/insert). After 3 to 5 days, the rat BMECs were seeded at a density of 1.5 × 10^5 cells/insert onto the opposite side of the inserts to produce rat BMEC monolayers. The in vitro BBB cell model was formed 3 to 4 days. Trans-epithelial electrical resistance (TEER) measurements were performed everyday after the co-cultures formed until the TEER value increased to […] ([Yang et al., 2014]) ( Figure 2C ).
The transport experiments were performed by adding 400 μl HBSS containing the compounds to the apical side (AP), with 600μl HBSS to the basolateral side (BL) at the same time. Samples (60 μl) were collected from the BL chamber at the time points of 15, 30, 60, 90, 120, and 180 min, and the corresponding volume of HBSS buffer was immediately added into the BL chamber. The samples were precipitated by methanol, and the concentrations of the compounds in the samples were determined by high-performance liquid chromatography (HPLC). The HPLC conditions were as follows: Agilent TC-C18 column (250 × 4.6 mm; 5 μm), methanol 1% ethanoic acid mobile phase (from 10:90 to 90:10, v/v), with gradient elution at a flow rate of 1.0 ml/min. The detection wavelength was 275 nm for these compounds. The run time was 20 min. The apparent permeability coefficients (P app) were calculated from the following formula: P app = (∆Q/∆t)/(A × C 0), where ∆Q/∆t is the linear appearance rate of the compound on the BL side (μmol/s), A is the surface area of the cell monolayer (cm^2), and C 0 is the initial concentration of the drug on the AP side (μmol/L).

Another series deals with rat BMECs. The experiment in a line: Cytotoxicity of apocynin derivatives on rat BMECs (MTT, 24 h). The format is cell-based. The settings on record: 100 μM, vs control, P < 0.05. How it is done: as §1
Rat BMECs were collected and seeded into 96-well culture plates at a density of 7.5 × 10^3 cells/well overnight. The cells were treated with different concentrations of the compounds (10, 20, and 100 μM) for 24 h, respectively. Then, 20-μl MTT (5 mg/ml) in fresh medium was added to each well and incubated for another 4 h. Finally, 150μl dimethyl sulfoxide (DMSO) was added to dissolve formazan crystals, and the absorbance was detected at 490 nm in a multiwall-plate reader (BioTek ELx800).

The next series has as its system rat C6 glioma cells. Description: Anti-glioma MTT assay, C6 cells. The format is cell-based. The conditions noted are these: for Anti-proliferation effect on C6 cells (first screening): 10, 20, 100 μM, compared with D1, P < 0.05; for IC50: Rattus norvegicus, C6 cells. How it is done:
(§2) The anti-glioma effects of these compounds were evaluated by MTT assay in rat C6 glioma cells, human glioma U87 and U251 cells, and BMECs cells. Brieﬂy, cells were seeded at the density of 4,000 cells/well in 96-well plates overnight. For the first screening, the cells were incubated with 10, 20, 100 μM compounds for 48 h. Then cell viabilities were detected by MTT assay as described above. For the second screening, the cells were incubated with 6.25-, 12.5-, 25-, 50-, and 100μM compounds for 48 and 96 h, and then detected by MTT assay. The OD of each well was measured at 490 nm on an ELISA microplate reader. The inhibitory rates and IC50 values were calculated.
In general terms: Tetrazolium assays rely on reduction of a dye to a coloured formazan, in cell work by metabolically active cells.

The next series relates to human glioma U87 cells. Description: Anti-glioma MTT assay, U87 cells. Format: cell-based. The conditions noted are these: for Anti-proliferation effect on U87 cells (first screening): 10, 20, 100 μM, compared with D1, P < 0.05; for IC50: Homo sapiens, U-87 MG, U87 cells. How it is done:
as §2

For the next series, the system named is human glioma U251 cells. The experiment in a line: Anti-glioma MTT assay, U251 cells. The format is cell-based. How it is done: as §2
For the next series, the system named is BMECs. The experiment in a line: MTT assay on normal BMECs (48 and 96 h). Format: cell-based. The conditions noted are these: Rattus norvegicus. How it is done:
as §1, §2

In the next series the test system is C6 glioma. The experiment in a line: Rat C6 glioma model. The format is in vivo. The conditions noted are these: C6 glioma-bearing Wistar rats, 25 mg/kg i.p. daily; for Tumor volume vs control group: MRI 13 days after treatment. How it is done:
C6 glioma model was established as previously reported ([Xu etal., 2016]). The C6 glioma cells in the logarithmic growth phase were collected for implantation. Male Wistar rats (male, 160–180g) were anesthetized with 10% chloral hydrate, and then a hole (1 mm diameter) was drilled in the cranial bone. C6 cells in PBS were injected slowly (3 × 10^6 cells/rat).
Tumors in the brains of the rats were detected by Bruker 7.0 T Micro-MRI using a T2W RARE sequence (TR/TE 3000/15 ms; slice thickness, 1.0 mm; flip angle, 180°; Matrix 256×256; slice gap, 1.0 mm; FOV, 33×33 mm; time, 4.8 min) 7 days after implantation. Tumor volumes (V) were calculated by the following formula: V = (4/3 × π × LHW)/8, where L is the maximum anteroposterior diameter, H and W are the height and width. Then the rats were sacrificed, and the brain tissues were fixed with formalin, embedded in paraffin, sectioned, and subjected to hematoxylin/eosin (HE) staining and immunohistochemical staining for glial fibrillary acidic protein (GFAP) as previously described ([Xu et al., 2016]). The sections from each animal were analyzed by a pathologist. Only rats with maximum intracerebral tumor diameter of >5.0 mm were used.
After the successful implantation, the rats were randomly divided into […] and treated with different drugs by intraperitoneal injection daily: control group (PBS, n = 6), TMZ group (25 mg/kg, n = 6), D14 group (25 mg/kg, n = 6), and D31 group (25 mg/kg, n = 6). The body weights were recorded everyday after administration. Thirteen days after treatment, brain tumors in the rats were detected by Bruker 7.0 T Micro-MRI as described above. Tumor volumes were calculated and recorded as above.

The conditions of series [2]: cited from earlier work; for BBB penetration rate relative to morphine: ref Oldendorf et al., 1972.

As a reminder, the Papp is a coefficient for how fast a substance crosses the barrier. In general, IC50 refers to the point on the concentration scale where inhibition reaches its midpoint.

Turning to `COc1cc(C(=O)CNc2ccccc2)ccc1OCc1ccccc1` [Compound D5, 1-(4-(Benzyloxy)-3-Methoxyphenyl)-2-(Phenylamino)Ethan-1-One], the Papp at 90 min, 100 μM in series [1] is 10.3 ± 0.31 ×10⁻⁶ cm/s.

As for `COc1cc(C(=O)CNc2ccc(F)cc2)ccc1OCc1ccccc1` [Compound D6, 1-(4-(Benzyloxy)-3-Methoxyphenyl)-2-((4-Fluorophenyl)Amino) Ethan-1-One], the apparent permeability coefficient (Papp) at 90 min, 100 μM in series [1] is 8.68 ± 0.45 ×10⁻⁶ cm/s.

Take `COc1cc(C(=O)CNc2ccccc2)ccc1O` [Compound D13, 1-(4-Hydroxy-3-Methoxyphenyl)-2-(Phenylamino)Ethan-1-One]: the “Effect on cell viability of rat BMECs” value in the series on rat BMECs is given as “significantly inhibit the cell viability”. Moreover, in series [1], the Papp at 90 min, 20 μM came out at 5.41 ± 0.52 ×10⁻⁶ cm/s. For the same compound, in the series with rat C6 glioma cells (48 h), the “Anti-proliferation effect on C6 cells (first screening)” value (“Anti-proliferation effect on C6 cells” for short) is reported as “significant anti-proliferation effects”.

With `COc1cc(C(=O)CNc2ccc(F)cc2)ccc1O` [Compound D14, 2-((4-Fluorophenyl)amino)-1-(4-Hydroxy-3-Methoxyphenyl)Ethan-1-One], the “Effect on cell viability of rat BMECs” value in the series with rat BMECs is on record as “significantly inhibit the cell viability”. The Papp at 90 min, 20 μM in series [1] was 4.24 ± 1.3 ×10⁻⁶ cm/s. Moreover, the “Anti-proliferation effect on C6 cells” value in the series on rat C6 glioma cells (48 h) is on record as “significant anti-proliferation effects”. Besides, the IC50 in the series with rat C6 glioma cells (48 h) worked out at 37.2 µM; in the series with rat C6 glioma cells (96 h) it was 22.9 µM; in the series on human glioma U87 cells (48 h), 61.6 µM; with human glioma U87 cells (96 h), 60.1 µM; with human glioma U251 cells (U-251, 48 h) it was 71.6 µM; with human glioma U251 cells (U-251, 96 h), 34.5 µM. Further, the IC50 in the series with BMECs (48 h) was over 100 µM; with BMECs (96 h), 78.2 µM. Moreover, in the series with human glioma U87 cells (48 h), the “Anti-proliferation effect on U87 cells (first screening)” value is “significant anti-proliferation effects”. Moreover, in the series on C6 glioma, the “Body weight changes vs control group” value is reported as “no obvious body weight changes”. In addition, in the series with C6 glioma, the “Tumor volume vs control group” value is recorded as “no obvious growth inhibitory effects”.

Regarding `COc1cc(NCC(=O)c2ccc(O)c(OC)c2)cc(OC)c1` [Compound D16, 2-((3,5-Dimethoxyphenyl)Amino)-1-(4-Hydroxy-3-Methoxyphenyl)Ethan-1-One], in the series with rat BMECs, the “Effect on cell viability of rat BMECs” value is on record as “significantly inhibit the cell viability”. The Papp at 90 min, 20 μM in series [1] was found to be 2.54 ± 0.58 ×10⁻⁶ cm/s.

For `COc1cc(C(=O)CNc2ccc(F)cc2F)ccc1O` [Compound D21, 2-((2,4-Difluorophenyl)Amino)-1-(4-Hydroxy-3-Methoxyphenyl)Ethan-1-One], the Papp at 90 min, 100 μM in series [1] was determined as 6.08 ± 0.65 ×10⁻⁶ cm/s.

Consider `COc1cc(C(=O)CNc2ccc(Cl)cc2)ccc1O` [Compound D22, 2-((4-Chlorophenyl)Amino)-1-(4-Hydroxy-3-Methoxyphenyl)Ethan-1-One], for which the Papp at 90 min, 100 μM in series [1] was 5.42 ± 0.58 ×10⁻⁶ cm/s.

On to `COc1cc(C(=O)CSCc2ccccc2)ccc1O` [Compound D33, 2-(Benzylthio)-1-(4-Hydroxy-3-Methoxyphenyl)Ethan-1-One], for which, in the series on rat BMECs, the “Effect on cell viability of rat BMECs” value was “significantly inhibit the cell viability”. Further, the Papp at 90 min, 20 μM in series [1] is 9.58 ± 2.35 ×10⁻⁶ cm/s. Also, the “Anti-proliferation effect on C6 cells” value in the series with rat C6 glioma cells (48 h) is “significant anti-proliferation effects”.

Regarding `COc1cc(C(=O)CSCc2ccc(F)cc2)ccc1O` [Compound D34, 2-((4-Fluorobenzyl)Thio)-1-(4-Hydroxy-3-Methoxyphenyl)Ethan-1-One], the “Effect on cell viability of rat BMECs” value with rat BMECs is on record as “significantly inhibit the cell viability”. The Papp at 90 min, 20 μM in series [1] is 11.9 ± 1.53 ×10⁻⁶ cm/s. Moreover, the “Anti-proliferation effect on C6 cells” value in the series on rat C6 glioma cells (48 h) is recorded as “significant anti-proliferation effects”.

For `CCC1(c2ccccc2)C(=O)NC(=O)NC1=O` [Phenobarbital, 5-ethyl-5-phenylbarbituric acid], in series [2] (ref Liu et al., 2007), the “BBB penetration rate relative to barbituric acid” value is given as “increased BBB penetration rate”.

As for `Cn1nnc2c(C(N)=O)ncn2c1=O` [TMZ, Temozolomide, reference compound], in the series with rat BMECs, the “Effect on cell viability of rat BMECs” value was “significantly inhibit the cell viability”. Also, the Papp at 90 min, 20 μM in series [1] was 7.74 ± 0.34 ×10⁻⁶ cm/s. In addition, the “Anti-proliferation effect on C6 cells” value in the series with rat C6 glioma cells (48 h) was “significant anti-proliferation effects”. The IC50 in the series with rat C6 glioma cells (48 h) worked out at 51.1 µM; with rat C6 glioma cells (96 h), 36.8 µM; in the series with human glioma U87 cells (48 h) it was 54.1 µM; in the series with human glioma U87 cells (96 h), 28.4 µM; with human glioma U251 cells (U-251, 48 h), 48.1 µM; in the series on human glioma U251 cells (U-251, 96 h), 15.3 µM. Moreover, the IC50 in the series with BMECs (48 h) was determined as 94.5 µM; in the series with BMECs (96 h) it was 54.4 µM. Moreover, the “Anti-proliferation effect on U87 cells (first screening)” value with human glioma U87 cells (48 h) is on record as “significant anti-proliferation effects”. In addition, the “Body weight changes vs control group” value in the series with C6 glioma is reported as “no obvious body weight changes”. Moreover, the “Tumor volume vs control group” value in the series on C6 glioma is on record as “significantly decreased”.

As for `COc1ccc2c3c1O[C@H]1[C@@H](O)C=C[C@H]4[C@@H](C2)N(C)CC[C@@]341` [codeine], in series [2], the “BBB penetration rate relative to morphine” value is recorded as 10 times.

For the compound `CC(=O)Oc1ccc2c3c1O[C@H]1[C@@H](OC(C)=O)C=C[C@H]4[C@@H](C2)N(C)CC[C@@]341` [heroin, diacetylmorphine], in series [2], the “BBB penetration rate relative to morphine” value was 100 times.
